Measured values published in publication PMC3202029 (Journal of ethnopharmacology, 2011).

Columns and labels:
[1] = ref Konishi et al. 2005; Bérangère et al., 2004; cited from earlier work
Caco-2 cell monolayers = assay: Transepithelial transfer; type: in vitro ADME, human; conditions: for compound found in cells: cell homogenate after 4 h, before or after deconjugation; for uptake (transport rate): 4 h
Transepithelial transfer = type: in vitro ADME, human; conditions: human, Caco-2, pH 7.4

| recovery at 4 h, 10 μM (Transepithelial transfer) [%] | basolateral detection at 0.5 and 1 h (Caco-2 cell monolayers; before deconjugation, 10 μM RA) | basolateral recovery of paracellular marker (Caco-2 cell monolayers; 100 μM LY) [%] | Papp before deconjugation (Caco-2 cell monolayers; apical to basolateral, HBSS pH 7.4, RA 10 μM, UA 5, 10 and 20 μM, LY 100 μM) [cm/s ×10^−6] | Molecule | partition coefficient (Log P) [1] | detection of UA after apical application of P. vulgaris extracts (Caco-2 cell monolayers; apically-applied P. vulgaris extracts containing 1-10 μM RA) | compound found in cells (Caco-2 cell monolayers) | uptake (transport rate) (Caco-2 cell monolayers; highest tested concentration, 20 μM) [μM/h/cm^2] | uptake (transport rate) (Caco-2 cell monolayers; lowest tested concentration, 5 μM) [μM/h/cm^2] |
| --- | --- | --- | --- | --- | --- | --- | --- | --- | --- |
|  |  |  |  | C[C@H]1[C@H](C)CC[C@]2(C(=O)O)CC[C@]3(C)C(=CC[C@@H]4[C@@]5(C)CC[C@H](O)C(C)(C)[C@@H]5CC[C@]43C)[C@H]12 [UA, Ursolic acid] | 6.4 | not detected | neither RA nor UA was found in cells | 0.2 ± 0.04 | 0.03 ± 0.01 |
| 86.7 ± 2.9 | not detected |  |  | O=C(/C=C/c1ccc(O)c(O)c1)O[C@H](Cc1ccc(O)c(O)c1)C(=O)O [RA, Rosmarinic acid] | 0.2 |  | neither RA nor UA was found in cells |  |  |
|  |  | 0.5 ± 0.1 | 0.3 ± 0.1 | lucifer yellow [LY, reference compound] |  |  |  |  |  |
